# Measured values as given in patent US8003599B2, “Inhibitors of L1 and ADAM10 for the treatment of carcinomas” (Deutsches Krebsforschungszentrum, priority 2004, dated 2011).
# “Also recorded” adds a separate entry of the source.
# Tested on: HEK293-hL1 cells
# Experiment: Haptotactic cell migration assay in Transwell chambers, HEK293-hL1 cells
# Assay type: cell-based, human
# Conditions: fibronectin, 24 h after transient transfection (FIG. 11)
# Protocol: (C) Inhibition of haptotactic cell migration in the absence or presence of the indicated mAbs to integrins at a final concentration of 10 μg/ml. FN at 10 μg/ml or BSA for control were coated onto the backside of Transwell chambers. Cells were seeded into the top chamber and allowed to transmigrate for 16 hr at 37° C. The antibody was present during the assay time. Each determination was done in quadruplicate and transmigrated cells were stained from the back of the filter. The dye was eluted from the filter and measured at 595 nm. The amount of dye is proportional to the number of transmigrated cells. Values for the migration on BSA were below 0.25 O.D. units for each cell type.
# The haptotactic cell migration assay on fibronectin, laminin or BSA was performed in Transwell chambers (Costar, 6.5 mm diameter, 5 um pore size) and was described in detail elsewhere (Mechtersheimer et al., supra). Transmigrated cells were quantified by staining of the transwell membranes with cristalviolet solution as described (Mechtersheimer at al., supra). The eluted dye was measured at 595 nm in an ELISA reader.
smiles,measurement,value
COc1cccc(-c2cc(=O)c3ccccc3o2)c1N [PD59098],suppression of enhanced (L1-dependent) migration of HEK-293-hL1 wild type cells,same effect; also recorded: could block the L1-dependent migration
